The text below walks through data of patent publication US20190022162A1, “COMBINATION ANTICANCER ENDOWED WITH ANTITUMOR ACTIVITY, COMPRISING ALKALOIDS OF CHELIDONIUM MAJUS” (International Society for Drug Development S.R.L., priority 2015, published 2019).

Data set [1] deals with MIA PaCa-2 pancreatic cancer cell line. The data set can be described thus: Cell counting (Trypan blue, Neubauer chamber), MIA PaCa-2 cells. It is filed as cell-based. To be noted: for percentage of viable cells relative to the control: 48 h. As for the experimental part: The MIA PaCa-2 cells were cultivated in T25 flasks and treated with the agents after reaching a confluence of 90%. After a 48 hours treatment, the cells were detached with trypsin-EDTA and suspended in medium consisting of 50% DMEM and 50% Trypan blue. The number of viable cells after each treatment was estimated by using the Neubauer counting chamber, excluding those cells which turned out positive to Trypan blue. At least three counts were made for each treatment.
The percentage of viable cells relative to the control was determined by the ratio between the number of treated cells and the number of untreated cells.

For data set [2], the system named is U343 (glioblastoma). The data set can be described thus: WST-1 assay (dehydrogenase activity / cell viability), U343 cells. To be noted: 48 h.
For data set [3], the system named is human dermal fibroblasts (HDF). The data set is described as follows: Cell counting (Trypan blue, Neubauer chamber), HDF cells. Format: cell-based. As for the experimental part: (§1) For sake of completeness' of information and for the purpose of evaluating the differential cytotoxicity exerted both by the individual components of the combinations and by the combinations themselves on tumour and normal cells, the same treatments tested on U343 cells were also conducted on human dermal fibroblasts (HDF), chosen as a model of cells not concerned by tumour pathologies; this allowed, in the case of treatments tested on U343 cells, evaluations of the differential effects of the tested agents against tumour cells and against a model of normal cells, in accordance with the invention.
(§2) The U343 cells and the HDF cells were cultivated in T25 flasks and treated with the agents after reaching a confluence of 90%. After 48 hours of treatment, the cells were detached with trypsin-EDTA and suspended in medium consisting of 50% DMEM and 50% Trypan blue. The number of viable cells after each treatment was estimated by using the Neubauer counting chamber, excluding cells positive to Trypan blue. At least three countings were made for each treatment.
(§3) The percentage of viable cells compared to the control was determined by the ratio between the number of treated cells and the number of untreated cells.

Experiment in data set [4]: as above
Format: cell-based, human. To be noted: human, human dermal fibroblasts (HDF). As for the experimental part:
as §1, §2, §3

Data set [5] concerns U343 (glioblastoma). The data set can be described thus: Cell counting (Trypan blue, Neubauer chamber), U343 cells. It is filed as cell-based. To be noted: for percentage of viable cells compared to the control: 48 h. The protocol:
as §2, §3

Data set [6] concerns U343 cells / HDF cells. The data set can be described thus: Therapeutic Favourability Index (ratio of viable U343 to viable HDF cells). It is filed as cell-based. The source says:
It may be useful to remind that the TFI parameter allows estimating the ratio between desired cytotoxicity (on U343 cells) and undesired cytotoxicity (on HDF cells used as a normal cell model). The lower the value of the TFI parameter, the more the assayed agent is adequate for therapeutic use, since this parameter measures the ratio between desired cytotoxicity (on tumour cells) and undesired cytotoxicity (on the cells of the non-tumour model).

In data set [7] the test system is MIA PaCa-2 (pancreatic carcinoma). The data set is described as follows: WST-1 assay (dehydrogenase activity / cell viability), MIA PaCa-2 cells. For orientation: Tetrazolium assays rely on reduction of a dye to a coloured formazan, in cell work by metabolically active cells.
[8] abbreviates: 2.154 μM (combination equimolar).
Where [9] appears, read: 4.642 μM (combination equimolar).

`COc1ccc2cc3[n+](cc2c1OC)CCc1cc2c(cc1-3)OCO2` [Berberine, berberine]: the “percentage of viable cells relative to the control” value in data set [1] (Ber 0.4 μM) is given as 88%; in data set [1] (Ber 2.0 μM) it was 51%; in data set [1] (Ber 10 μM, listed as Ber), 33%; in data set [1] (Ber 50 μM), 24%. The “Δ (viability %)” value in data set [2] (0.1 μM (combination equimolar)) was 23.2128%; in data set [2] (0.215 μM (combination equimolar)) it was 12.3254%; in data set [2] (0.464 μM (combination equimolar)) it was 36.3599%; in data set [2] (1 μM (combination equimolar)), 27.3008%; in data set [2] (setting [8]), 15.4889%; in data set [2] (setting [9]) it was 11.3394%. Besides, the “Δ (viability %)” value in data set [2] (10 μM (combination equimolar)) is reported as 10.3533%; in data set [7] (0.215 μM (combination equimolar), 48 h) it was 5.73%. Also, the “% proliferation of HDF against control” value in data set [3] (0.464 μM) turned out to be 82.65%; in data set [3] (2.154 μM) it was 71.41%; in data set [3] (10.0 μM) it was 67.35%. The viability at 48 h, 0.464 μM in data set [4] (Ber 0.464 μM, 48 h, read-out: percentage of viable cells compared to the control) amounted to 82.7%. Moreover, in data set [4] (Ber 2.154 μM, 48 h, read-out: percentage of viable cells compared to the control), the viability at 48 h, 2.154 μM amounted to 70.4%. Moreover, the viability at 48 h, 10 μM in data set [4] (Ber 10 μM, 48 h, read-out: percentage of viable cells compared to the control) stood at 67.3%. Besides, the “% proliferation of U343 against control” value was 94.00% in data set [5] (0.464 μM), 82.60% in data set [5] (2.154 μM) and 59.80% in data set [5] (10.0 μM). Moreover, the “percentage of viable cells compared to the control” value in data set [5] (Ber 0.464 μM) stood at 94%; in data set [5] (Ber 2.154 μM) it was 82.6%; in data set [5] (Ber 10 μM) it was 59.8%. Further, the “TFI index U343/HDF % proliferation ratio” value came out at 1.137 in data set [6] (0.464 μM), 1.173 in data set [6] (2.154 μM) and 0.888 in data set [6] (10.0 μM). Further, the “decrease in the metabolic activity” value in data set [7] (starting from concentrations slightly lower than 10 μM) was “approx. 50%”.

On to `CN1Cc2c(ccc3c2OCO3)[C@@H]2[C@H]1c1cc3c(cc1C[C@@H]2O)OCO3` [Chelidonine, chelidonine], for which the “Δ (viability %)” value in data set [2] (0.1 μM (combination equimolar)) is 2.4722%; in data set [2] (1 μM (combination equimolar)) it was 25.9168%; in data set [2] (setting [8]), 40.0495%; in data set [2] (setting [9]) it was 24.4335%; in data set [2] (10 μM (combination equimolar)) it was 14.3799%.

Regarding `Nc1ccn([C@@H]2O[C@H](CO)[C@@H](O)C2(F)F)c(=O)n1` [Gemcitabine, gemcitabine, reference compound], the “percentage of viable cells relative to the control” value in data set [1] (Gemcitabine 20 μM) is recorded as 33%. Moreover, the viability at 20 µM in data set [1] (Homo sapiens, MIA PaCa-2, 48 h, Gemcitabine 20 μM, read-out: percentage of viable cells relative to the control) was > 30%. Further, the “effect on cell metabolic activity” value in data set [7] (agent alone, 0.1-10 μM) is “essentially negligible increase”.

`Cn1nnc2c(C(N)=O)ncn2c1=O` [temozolomide, reference compound]: the cytotoxicity at 48 h in data set [4] (direct administration, decrease up to, read-out: reduction in the percentage of viable HDF cells) was 60 to 70%.
